Where “and” joins values, the source holds several entries; their conditions need not be identical. Identical values can stand only once.
What was measured:
[1] = tested on: CCl4-induced hepatotoxicity in mice; assay: Carbon tetrachloride (CCl4)-induced hepatotoxicity in mice, serum biochemical parameters (Example II); format: in vivo, Swiss albino mice; details: for ALT / AST / MDA / Total Bilirubin / Total Protein: 10 mg/kg p.o. 7 days + CCl4 (30%) 1 ml/kg i.p., serum, mean ± SD, n=6
Description: Swiss albino mice of both sexes, weighing approximately 25-30 g, were obtained from National Research Institute of Ayurveda for Drug Development (Govt. of India), Kolkata, and were housed in polypropylene cages at 22±3° C., relative air humidity of 45 to 55%, with 12.00 hr light and dark cycle (lighting on from 6:00 AM to 6:00 PM) and were provided standard pellet chow (carbohydrate 65.5%, protein 17.6%, fat 6.6%) and distilled water ad libitum. The mice were acclimatized for one week in the laboratory conditions before being used in the experiment. All experiments were conducted between 10.00 hr and 14.00 hr. Principles of laboratory animals care (NIH publication no. 85-23, revised 1985) were followed.

[2] = tested on: paracetamol-induced hepatotoxicity in mice; assay: Synergistic hepatoprotective activity of DBPs against paracetamol-induced hepatotoxicity (Example IV); format: in vivo; details: for ACP / ALP / ALT / AST / Total Protein: paracetamol 200 mg/kg, mean ± SEM, n=4
[3] = tested on: CCl4-induced hepatotoxicity in mice; assay: Synergistic hepatoprotective activity of DBPs against CCl4-induced hepatotoxicity (Example IV); details: for ACP / ALP / ALT / AST / Total Protein: CCl4 1 ml/kg, mean ± SEM, n=4
[4] = Body weight, food intake and water intake during alcohol-induced hepatotoxicity study (Example III); format: in vivo, Swiss Albino mice; details: for change in body weight / change in food intake / change in water intake: 10 mg/kg p.o. + alcohol, 15 days; for body weight / food intake / water intake: 10 mg/kg p.o. + alcohol 5 g/kg p.o. twice daily, mean ± SD
Description: Swiss Albino male and female mice weighing approximately 30±5 g, 2 month old mice were obtained from National Research Institute of Ayurveda for Drug Development (Govt. of India), Kolkata, and were housed in polypropylene cages at 22±3° C., relative air humidity of 45 to 55%, with 12.00 hr light & dark cycle (lighting on from 6:00 AM to 6:00 PM). Mice were provided a standard pellet chow diet (carbohydrate 65.5%, protein 17.6%, fat 6.6%) and distilled water ad libitum. The mice were acclimatized for one week in the laboratory conditions, before being used in the experiment. All experiments were conducted between 10.00 hr and 14.00 hr. Principles of laboratory animals care (NIH publication no. 85-23, revised 1985) were followed.
Vehicle control animals (“Con Veh”) were administered 0.3% CMC orally for 15 days.
Animals receiving ethanol (“Alc+0.3 CMC”, “3-OH-DBP+Alc”, “3,8-(OH)2-DBP+Alc”) were administered ethanol in 0.3% CMC orally as discussed above.
Results were expressed in terms of mean±SD (n=8). The data were subjected to one way ANOVA followed by Tukey's test using GraphPad Prism 4.0 software to establish statistical significance (*p<0.05, **p<0.01, ***p<0.001 vs. vehicle control; # p<0.05, ## p<0.01, ### p<0.001 vs. animals administered ethanol only).

[5] = female mice, doses 3-OH-DBP 2, 3,8-(OH)2-DBP 10, 1:5 combination 12 mg/kg b.w.
[6] = female mice, doses 3-OH-DBP 10, 3,8-(OH)2-DBP 50, 1:5 combination 60 mg/kg b.w.
[7] = male mice, doses 3-OH-DBP 2, 3,8-(OH)2-DBP 10, 1:5 combination 12 mg/kg b.w.
[8] = male mice, doses 3-OH-DBP 10, 3,8-(OH)2-DBP 50, 1:5 combination 60 mg/kg b.w.

SMILES: O=c1oc2cc(O)ccc2c2ccc(O)cc12 [3,8-(OH)2-DBP, 3,8-dihydroxy-dibenzo-alpha-pyrone]
- effect on CCl4-induced hepatotoxicity (ALT, AST, bilirubin, total protein vs CCl4 group) ([1]; 10 mg/kg p.o., mice): significantly attenuated and reversed the CCl4-induced hepatotoxicity
- effect on CCl4-induced lipid peroxidation (MDA) ([1]; 10 mg/kg p.o., mice): significantly lowered CCl4-induced lipid peroxidation
- ALT ([1]; female mice): 60.99 ± 13.49 IU/L
- AST ([1]; female mice): 12.95 ± 2.46 IU/L
- MDA ([1]; female mice): 6.53 ± 0.66 nmol/mL
- Total Bilirubin ([1]; female mice): 0.60 ± 0.18 mg/dL
- Total Protein ([1]; female mice): 4.02 ± 0.3 g/dL
- hepatoprotective activity against carbon tetrachloride-induced liver damage, in comparison to 3-OH-DBP ([1]; females, 10 mg/kg p.o.): better hepatoprotective activity
- ALT ([1]; male mice): 64.78 ± 4.65 IU/L
- AST ([1]; male mice): 13.04 ± 3.74 IU/L
- Total Bilirubin ([1]; male mice): 0.48 ± 0.14 mg/dL
- Total Protein ([1]; male mice): 0.00412 ± 0.00086 g/dL
- MDA ([1]; male mice, 10 mg/kg): 6.59 nmol/mL and 6.59 ± 0.82 nmol/mL
- hepatoprotective activity against carbon tetrachloride-induced liver damage ([1]; males and females, 10 mg/kg p.o.): significant hepatoprotective activity
- ACP, difference in values from paracetamol treated mice [2, 5]: B = (a-c = 4) U/L
- ALP, difference in values from paracetamol treated mice [2, 5]: D = (a-c = 53) IU/L
- ALT, difference in values from paracetamol treated mice [2, 5]: B = (a-c = 39) IU/L
- AST, difference in values from paracetamol treated mice [2, 5]: B = (a-c = 64) IU/L
- ACP, difference in values from paracetamol treated mice [2, 6]: E = (a-f = 5) U/L
- ALP, difference in values from paracetamol treated mice [2, 6]: E = (a-f = 48) IU/L
- ALT, difference in values from paracetamol treated mice [2, 6]: E = (a-f = 43) IU/L
- AST, difference in values from paracetamol treated mice [2, 6]: E = (a-f = 77) IU/L
- ACP [2, 5]: 12 ± 0.63^##(c) U/L
- ALP [2, 5]: 45 ± 7.9^##(c) IU/L
- ALT [2, 5]: 47 ± 12 (c) IU/L
- AST [2, 5]: 79 ± 11*,^#(c) IU/L
- Total Protein [2, 5]: 6.7 ± 0.02 g/dL
- ACP [2, 6]: 11 ± 0.41^#(f) U/L
- ALP [2, 6]: 50 ± 11^#(f)^ IU/L
- ALT [2, 6]: 43 ± 2.5^##(f) IU/L
- AST [2, 6]: 66 ± 11*,^#(f) IU/L
- Total Protein [2, 6]: 5.8 ± 0.30 g/dL
- Relative liver weight ([2]; male and female mice, paracetamol study of Example IV): significantly (p<0.01) increased
- ACP, difference in values from paracetamol treated mice [2, 7]: B = (a-c = 6.13) U/L
- ALP, difference in values from paracetamol treated mice [2, 7]: B = (a-c = 50.87) IU/L
- ALT, difference in values from paracetamol treated mice [2, 7]: B = (a-c = 18.35) IU/L
- AST, difference in values from paracetamol treated mice [2, 7]: B = (a-c = 33.82) IU/L
- ACP, difference in values from paracetamol treated mice [2, 8]: E = (a-f = 10.56) U/L
- ALP, difference in values from paracetamol treated mice [2, 8]: E = (a-f = 48.85) IU/L
- ALT, difference in values from paracetamol treated mice [2, 8]: E = (a-f = 20.56) IU/L
- AST, difference in values from paracetamol treated mice [2, 8]: E = (a-f = 46.36) IU/L
- ACP [2, 7]: 12.06 ± 0.43 (c) U/L
- ALP [2, 7]: 77.63 ± 6.81 (c) IU/L
- ALT [2, 7]: 49.28 ± 7.23 (c) IU/L
- AST [2, 7]: 68.23 ± 4.96^###(c) IU/L
- Total Protein [2, 7]: 6.97 ± 0.12 g/dL
- ACP [2, 8]: 7.63 ± 0.45^##(f) ^ U/L
- ALP [2, 8]: 79.67 ± 10.18^###(f) IU/L
- ALT [2, 8]: 47.07 ± 6.69^#(f) ^ IU/L
- AST [2, 8]: 55.69 ± 5.37^###(f) IU/L
- Total Protein [2, 8]: 6.98 ± 0.12 g/dL
- hepatoprotective activity (conclusion, Tables 15 and 16) ([2]; paracetamol-induced hepatotoxicity, male and female mice): hepatoprotective activity in a dose dependent manner
- hepatoprotective activity (conclusion, Tables 19 and 20) ([3]; CCl4-induced hepatotoxicity, male and female mice): hepatoprotective activity in a dose dependent manner
- ACP [3, 5]: 48 ± 4 (c) U/L
- ALP [3, 5]: 89 ± 5.1 (c) IU/L
- ALT [3, 5]: 68 ± 6.5 (c) IU/L
- AST [3, 5]: 57 ± 8 (c) ^ IU/L
- Total Protein [3, 5]: 4.9 ± 0.21 g/dL
- ACP [3, 6]: 28 ± 5.1 (f) U/L
- ALP [3, 6]: 68 ± 8 (f) ^ IU/L
- ALT [3, 6]: 62 ± 3.6 (f) IU/L
- AST [3, 6]: 41 ± 14^###(f) IU/L
- Total Protein [3, 6]: 6.6 ± 0.16 g/dL
- ACP, difference in values from CCl4 treated mice [3, 5]: B = (a-c = 32) U/L
- ALP, difference in values from CCl4 treated mice [3, 5]: B = (a-c = 1) IU/L
- ALT, difference in values from CCl4 treated mice [3, 5]: B = (a-c = 19) IU/L
- AST, difference in values from CCl4 treated mice [3, 5]: B = (a-c = 48) IU/L
- ACP, difference in values from CCl4 treated mice [3, 6]: E = (a-f = 52) U/L
- ALP, difference in values from CCl4 treated mice [3, 6]: E = (a-f = 22) IU/L
- ALT, difference in values from CCl4 treated mice [3, 6]: E = (a-f = 25) IU/L
- AST, difference in values from CCl4 treated mice [3, 6]: E = (a-f = 64) IU/L
- ACP [3, 7]: 48 ± 7.2***,#(c) U/L
- ALP [3, 7]: 89 ± 5.1*,,#(c) IU/L
- ALT [3, 7]: 68 ± 5.1 (c) IU/L
- AST [3, 7]: 70 ± 4.4##(c) IU/L
- Total Protein [3, 7]: 6.3 ± 0.36 g/dL
- ACP [3, 8]: 46 ± 2.5 (f)^ U/L
- ALP [3, 8]: 68 ± 8##(f) ^ IU/L
- ALT [3, 8]: 60 ± 2.5 (f) IU/L
- AST [3, 8]: 58 ± 1.9###(f)^ IU/L
- Total Protein [3, 8]: 6 ± 0.40 g/dL
- Relative liver weight ([3]; male mice, CCl4 study of Example IV): significantly increased
- ACP, difference in values from CCl4 treated mice [3, 7]: B = (a-c = 38) U/L
- ALP, difference in values from CCl4 treated mice [3, 7]: B = (a-c = 53) IU/L
- ALT, difference in values from CCl4 treated mice [3, 7]: B = (a-c = 12) IU/L
- AST, difference in values from CCl4 treated mice [3, 7]: B = (a-c = 33) IU/L
- ACP, difference in values from CCl4 treated mice [3, 8]: E = (a-f = 20) U/L
- ALP, difference in values from CCl4 treated mice [3, 8]: E = (a-f = 74) IU/L
- ALT, difference in values from CCl4 treated mice [3, 8]: E = (a-f = 20) IU/L
- AST, difference in values from CCl4 treated mice [3, 8]: E = (a-f = 45) IU/L
- change in body weight ([4]; female mice): No significant change
- change in food intake ([4]; female mice): No significant change
- change in water intake ([4]; female mice): No significant change
- body weight ([4]; female mice, Day 0): 25.17 ± 2.32 gm
- food intake ([4]; female mice, Day 0): 8.52 ± 0.30 gm
- water intake ([4]; female mice, Day 0): 4 ± 0.28 mL
- body weight ([4]; female mice, Day 5): 23.5 ± 3.02 gm
- food intake ([4]; female mice, Day 5): 8.78 ± 1.02 gm
- water intake ([4]; female mice, Day 5): 4.01 ± 0.26 mL
- body weight ([4]; female mice, Day 10): 23.67 ± 3.07 gm
- food intake ([4]; female mice, Day 10): 16.44 ± 0.47 gm
- water intake ([4]; female mice, Day 10): 2.32 ± 0.46 mL
- body weight ([4]; female mice, Day 15): 22.83 ± 2.78 gm
- food intake ([4]; female mice, Day 15): 16.12 ± 0.66 gm
- water intake ([4]; female mice, Day 15): 2.15 ± 0.44 mL
- change in body weight ([4]; male mice): No significant change
- change in food intake ([4]; male mice): No significant change
- change in water intake ([4]; male mice): No significant change
- body weight ([4]; male mice, Day 0): 29.17 ± 2.79 gm
- food intake ([4]; male mice, Day 0): 17.01 ± 0.75 gm
- water intake ([4]; male mice, Day 0): 4.92 ± 0.45 mL
- body weight ([4]; male mice, Day 5): 25 ± 3.29 gm
- food intake ([4]; male mice, Day 5): 17.18 ± 0.85 gm
- water intake ([4]; male mice, Day 5): 5.07 ± 0.61 mL
- body weight ([4]; male mice, Day 10): 25.67 ± 2.66 gm
- food intake ([4]; male mice, Day 10): 17.21 ± 1.11 gm
- water intake ([4]; male mice, Day 10): 2.32 ± 0.31 mL
- body weight ([4]; male mice, Day 15): 24.8 ± 2.93 gm
- food intake ([4]; male mice, Day 15): 17.23 ± 1.16 gm
- water intake ([4]; male mice, Day 15): 2.27 ± 0.33 mL

— patent US20220071952A1, “METHODS OF TREATING AND PREVENTING HEPATOTOXICITY” (Natreon, Inc., priority 2020, published 2022)
